pEC50, pIC50, pKi: −log10 of the molar value. Blank lines part the entries; values can stand above or below the compound they belong to.
Columns and labels:
[1] = molecular target: von Hippel-Lindau disease tumor suppressor/Mitogen-activated protein kinase 14 (Homo sapiens) (UniProt Q16539+P40337); assay: PROTAC activity at VHL/N-terminal His-tagged human p38alpha expressed in Escherichia coli BL21-CodonPlus (DE3)-RIPL cells assessed as maximal degradation relative to control
[2] = molecular target: Protein cereblon/Mitogen-activated protein kinase 13 (Homo sapiens) (UniProt O15264+Q96SW2); assay: PROTAC activity at CRBN/N-terminal His-tagged human p38delta expressed in Escherichia coli BL21-CodonPlus (DE3)-RIPL cells assessed as maximal degradation degradation relative to control
[3] = molecular target: T1, von Hippel-Lindau disease tumor suppressor/GTPase KRas (Homo sapiens, UniProt P01116+P40337, G12C); assay: PROTAC activity at VHL/KRAS G12C mutant in human NCI-H23 cells assessed as induction of KRAS G12C degradation by Immunoblot analysis; assay type: cell-based
[4] = molecular target: T1, von Hippel-Lindau disease tumor suppressor/GTPase KRas; assay: PROTAC activity at VHL/KRAS G12C mutant in human NCI- H2030 cells assessed as induction of KRAS G12C degradation by Immunoblot analysis; assay type: cell-based
[5] = molecular target: T1, von Hippel-Lindau disease tumor suppressor/GTPase KRas; assay: PROTAC activity at VHL/KRAS G12C mutant in human MIA PaCa-2 cells assessed as induction of KRAS G12C degradation by Immunoblot analysis; assay type: cell-based
[6] = molecular target: T1, von Hippel-Lindau disease tumor suppressor/GTPase KRas; assay: PROTAC activity at VHL/KRAS G12C mutant in human SW1573 cells assessed as induction of KRAS G12C degradation by Immunoblot analysis; assay type: cell-based
[7] = molecular target: T1, von Hippel-Lindau disease tumor suppressor/GTPase KRas; assay: PROTAC activity at VHL/KRAS G12C mutant in human NCI-H358 cells assessed as induction of KRAS G12C degradation by Immunoblot analysis; assay type: cell-based
[8] = molecular target: von Hippel-Lindau disease tumor suppressor (Homo sapiens, UniProt P40337); assay: Binding affinity to VHL (unknown origin) assessed as inhibition constant
MV4-11 = assay: Antiproliferative activity against human MV4-11 cells assessed as inhibition of cell growth incubated for 3 days by CellTiter-Glo assay; assay type: functional, cell-based; conditions: MV4-11, 72 h
[9] = molecular target: Bromodomain-containing protein 4 (Homo sapiens, UniProt O60885); assay: Induction of HiBit-tagged BRD4 degradation in human A549 cells incubated for 4 to 24 hrs by luminescence based Nano-Glo assay; assay type: cell-based

T1 sequence (P01116 whole entry G12C, stated change not applied): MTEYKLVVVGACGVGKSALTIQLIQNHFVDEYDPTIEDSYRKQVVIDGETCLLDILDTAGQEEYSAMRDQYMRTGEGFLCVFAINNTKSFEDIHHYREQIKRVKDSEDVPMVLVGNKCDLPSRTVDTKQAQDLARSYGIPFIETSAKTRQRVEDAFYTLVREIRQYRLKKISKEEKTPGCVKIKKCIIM
T1 sequence (P40337 whole entry, stated change not applied): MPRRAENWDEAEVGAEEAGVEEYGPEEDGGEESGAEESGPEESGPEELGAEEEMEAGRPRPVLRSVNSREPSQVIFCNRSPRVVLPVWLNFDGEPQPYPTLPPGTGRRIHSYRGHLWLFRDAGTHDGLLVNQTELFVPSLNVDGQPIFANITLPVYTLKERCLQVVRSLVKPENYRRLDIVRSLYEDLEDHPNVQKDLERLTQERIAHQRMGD
Sequence of von Hippel-Lindau disease tumor suppressor/Mitogen-activated protein kinase 14 (Homo sapiens) (P40337 whole entry partner): as the sequence (P40337 whole entry, stated change not applied) above
Sequence of von Hippel-Lindau disease tumor suppressor/Mitogen-activated protein kinase 14 (Homo sapiens) (Q16539 2-360 limits assumed): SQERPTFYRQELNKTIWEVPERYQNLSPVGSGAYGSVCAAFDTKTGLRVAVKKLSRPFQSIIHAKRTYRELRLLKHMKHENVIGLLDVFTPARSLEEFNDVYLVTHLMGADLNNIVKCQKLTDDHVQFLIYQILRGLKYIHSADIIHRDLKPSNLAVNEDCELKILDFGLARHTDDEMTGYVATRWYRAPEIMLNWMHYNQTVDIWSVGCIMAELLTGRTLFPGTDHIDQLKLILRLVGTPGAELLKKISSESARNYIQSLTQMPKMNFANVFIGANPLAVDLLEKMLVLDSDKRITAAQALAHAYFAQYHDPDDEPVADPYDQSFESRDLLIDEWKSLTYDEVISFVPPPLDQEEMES
Sequence of von Hippel-Lindau disease tumor suppressor (P40337 whole entry): as the sequence (P40337 whole entry, stated change not applied) above
Sequence of Protein cereblon/Mitogen-activated protein kinase 13 (Homo sapiens) (O15264 whole entry, looked up): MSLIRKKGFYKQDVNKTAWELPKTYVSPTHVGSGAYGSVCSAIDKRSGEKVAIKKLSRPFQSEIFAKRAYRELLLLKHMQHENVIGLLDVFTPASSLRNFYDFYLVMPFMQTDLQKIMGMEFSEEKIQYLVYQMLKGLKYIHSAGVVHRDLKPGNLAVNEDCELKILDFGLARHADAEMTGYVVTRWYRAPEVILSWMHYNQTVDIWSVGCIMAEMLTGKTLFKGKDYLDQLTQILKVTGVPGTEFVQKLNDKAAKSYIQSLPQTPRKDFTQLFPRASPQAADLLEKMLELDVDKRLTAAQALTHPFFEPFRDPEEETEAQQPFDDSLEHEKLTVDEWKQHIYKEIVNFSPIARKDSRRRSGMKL
Sequence of Protein cereblon/Mitogen-activated protein kinase 13 (Homo sapiens) (Q96SW2 whole entry, looked up): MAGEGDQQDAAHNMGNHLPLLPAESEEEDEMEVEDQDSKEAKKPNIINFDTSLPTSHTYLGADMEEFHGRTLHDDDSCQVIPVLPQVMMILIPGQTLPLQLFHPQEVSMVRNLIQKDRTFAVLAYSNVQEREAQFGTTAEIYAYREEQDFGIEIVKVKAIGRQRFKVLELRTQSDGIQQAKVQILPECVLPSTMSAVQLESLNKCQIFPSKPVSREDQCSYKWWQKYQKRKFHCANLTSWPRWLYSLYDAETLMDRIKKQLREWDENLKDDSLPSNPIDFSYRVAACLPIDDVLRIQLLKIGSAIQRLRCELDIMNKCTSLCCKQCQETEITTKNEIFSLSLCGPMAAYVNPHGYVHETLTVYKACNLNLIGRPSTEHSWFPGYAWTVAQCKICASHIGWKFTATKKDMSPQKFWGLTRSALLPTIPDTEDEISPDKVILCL

Emax [1]: 91%
Emax [2]: 91%
SMILES: COc1cc2c(Oc3ccc(NC(=O)C4(C(=O)Nc5ccc(F)cc5)CC4)cc3F)ccnc2cc1OCCCN1CCOCC1

SMILES: C=C(F)C(=O)N1CCN(c2nc(OC[C@@H]3CCCN3CCCOCCC(=O)N[C@H](C(=O)N3C[C@H](O)C[C@H]3C(=O)NCc3ccc(-c4scnc4C)cc3)C(C)(C)C)nc3c2CCN(c2cccc4cccc(Cl)c24)C3)C[C@@H]1CC#N
pEC50 [3]: 6.60
pEC50 [4]: 6.60
pEC50 [5]: 6.60
pEC50 [6]: 6.60
pEC50 [7]: 6.60

pKi [8]: 6.17
SMILES: Cc1ncsc1-c1ccc(CNC(=O)[C@@H]2C[C@@H](O)CN2C(=O)c2cccc(N)c2C)cc1

pIC50 (MV4-11): 8.21
SMILES: Cc1sc2c(c1C)C(c1ccc(Cl)cc1)=N[C@@H](CC(=O)NCCCCNC(=O)COc1cccc3c1C(=O)N(C1CCC(=O)NC1=O)C3=O)c1nnc(C)n1-2 (stereo not given in full)

pEC50 [9]: > 7.30
SMILES: Cc1cc([C@@H](C(=O)N2C[C@@H](O)C[C@@H]2C(=O)N[C@H](C)c2ccc(-c3scnc3C#CCOCCOCCOCCNC(=O)C[C@@H]3N=C(c4ccc(Cl)cc4)c4c(sc(C)c4C)-n4c(C)nnc43)cc2)C(C)C)on1

Source: ChEMBL document CHEMBL5370542, “Current advances of small molecule E3 ligands for proteolysis-targeting chimeras design” (Eur J Med Chem, 2023)
